Measurements as given in publication PMC3713097 (Chemical research in toxicology, 2013).
Like-named read-outs stand apart in the source and are kept apart here.

Columns and labels:
P450 1B1 [1] = biological target: T1, P450 1B1 (Homo sapiens, UniProt Q16678, L432V); test: Spectral binding titration with purified P450 1B1
T1 sequence (Q16678 1-543 L432V): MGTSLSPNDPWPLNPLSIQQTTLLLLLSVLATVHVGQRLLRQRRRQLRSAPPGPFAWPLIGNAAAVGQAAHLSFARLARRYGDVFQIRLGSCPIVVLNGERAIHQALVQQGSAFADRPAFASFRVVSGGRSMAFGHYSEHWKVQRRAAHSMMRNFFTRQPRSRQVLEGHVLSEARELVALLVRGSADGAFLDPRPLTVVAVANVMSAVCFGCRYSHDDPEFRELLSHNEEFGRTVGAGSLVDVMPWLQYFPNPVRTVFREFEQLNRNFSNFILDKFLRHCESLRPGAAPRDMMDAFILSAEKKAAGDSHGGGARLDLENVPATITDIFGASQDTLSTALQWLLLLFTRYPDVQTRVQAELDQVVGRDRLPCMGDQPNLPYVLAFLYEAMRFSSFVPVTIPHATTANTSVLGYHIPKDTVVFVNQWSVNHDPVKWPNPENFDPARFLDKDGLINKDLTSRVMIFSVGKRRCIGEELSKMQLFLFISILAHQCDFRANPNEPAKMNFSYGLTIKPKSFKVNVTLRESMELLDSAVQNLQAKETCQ

P450 2A6 [2] = biological target: T2, P450 2A6 (Homo sapiens, UniProt P11509); conditions: pH 7.4
T2 sequence (P11509 1-494): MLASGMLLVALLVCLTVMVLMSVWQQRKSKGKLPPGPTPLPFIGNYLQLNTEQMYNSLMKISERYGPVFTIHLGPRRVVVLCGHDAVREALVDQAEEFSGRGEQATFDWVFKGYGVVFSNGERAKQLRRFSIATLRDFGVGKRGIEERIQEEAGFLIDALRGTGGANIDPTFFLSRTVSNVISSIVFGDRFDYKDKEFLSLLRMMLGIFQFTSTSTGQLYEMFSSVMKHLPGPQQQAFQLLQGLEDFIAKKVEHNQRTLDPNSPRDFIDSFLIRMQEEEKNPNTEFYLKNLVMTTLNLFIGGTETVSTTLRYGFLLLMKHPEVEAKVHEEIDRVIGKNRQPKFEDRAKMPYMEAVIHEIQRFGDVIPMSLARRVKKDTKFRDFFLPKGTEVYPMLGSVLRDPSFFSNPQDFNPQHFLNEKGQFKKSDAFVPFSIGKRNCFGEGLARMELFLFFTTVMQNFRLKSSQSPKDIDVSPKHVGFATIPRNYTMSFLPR

P450 2A13 = biological target: T3, P450 2A13 (Homo sapiens, UniProt Q16696); test: Spectral binding titration with purified P450 2A13
T3 sequence (Q16696 with tags, fused parts or gaps limits assumed): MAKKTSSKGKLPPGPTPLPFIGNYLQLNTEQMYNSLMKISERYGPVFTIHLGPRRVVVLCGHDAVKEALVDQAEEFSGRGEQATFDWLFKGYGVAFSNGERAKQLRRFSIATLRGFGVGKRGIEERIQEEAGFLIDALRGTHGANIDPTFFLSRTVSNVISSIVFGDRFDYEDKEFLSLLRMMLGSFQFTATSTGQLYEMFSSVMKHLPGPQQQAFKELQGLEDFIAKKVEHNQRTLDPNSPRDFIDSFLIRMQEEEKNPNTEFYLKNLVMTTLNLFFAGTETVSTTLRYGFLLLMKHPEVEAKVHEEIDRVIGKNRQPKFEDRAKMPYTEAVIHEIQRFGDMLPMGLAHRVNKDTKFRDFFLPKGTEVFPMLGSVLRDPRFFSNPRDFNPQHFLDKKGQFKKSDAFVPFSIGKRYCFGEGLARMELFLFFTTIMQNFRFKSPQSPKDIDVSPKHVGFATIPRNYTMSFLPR

P450 1B1 [3] = biological target: T1, P450 1B1; conditions: 10 nM P450, 2.5 µM procarcinogen, means ± range of duplicate experiments
human P450 2A13 [4] = biological target: T4, human P450 2A13 (Homo sapiens, UniProt Q16696); conditions: 10 nM P450, 2.5 µM procarcinogen, means ± range of duplicate experiments
T4 sequence (Q16696 31-494 limits assumed): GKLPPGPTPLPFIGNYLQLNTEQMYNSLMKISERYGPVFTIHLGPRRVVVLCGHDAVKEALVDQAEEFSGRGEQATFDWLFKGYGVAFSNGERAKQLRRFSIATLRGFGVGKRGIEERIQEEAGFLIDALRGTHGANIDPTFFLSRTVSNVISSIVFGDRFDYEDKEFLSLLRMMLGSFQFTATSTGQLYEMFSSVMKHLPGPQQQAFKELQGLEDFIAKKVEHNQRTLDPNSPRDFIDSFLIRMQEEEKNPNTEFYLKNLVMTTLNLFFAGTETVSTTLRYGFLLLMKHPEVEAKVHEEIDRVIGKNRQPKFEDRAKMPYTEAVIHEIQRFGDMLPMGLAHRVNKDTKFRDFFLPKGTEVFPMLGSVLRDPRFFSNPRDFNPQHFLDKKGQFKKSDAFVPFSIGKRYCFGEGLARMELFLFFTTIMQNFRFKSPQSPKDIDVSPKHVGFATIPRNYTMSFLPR

P450 1B1 [5] = biological target: T1, P450 1B1; conditions: pH 7.4
human P450 2A13 [6] = biological target: T4, human P450 2A13; conditions: pH 7.4
P450 2A6 [7] = biological target: T2, P450 2A6; test: Spectral binding titration with purified P450 2A6

SMILES	Kd (P450 1B1 [1])	activation of procarcinogens umu gene expression (P450 2A6 [2])	Kd (P450 2A13)	activation of procarcinogens umu gene expression (P450 1B1 [5])	activation of procarcinogens umu gene expression (human P450 2A13 [6])	activation of procarcinogens umu gene expression (P450 1B1 [5]; 2.5 µM)	activation of procarcinogens umu gene expression (P450 2A6 [2]; 2.5 µM)	activation of procarcinogens umu gene expression (human P450 2A13 [6]; 2.5 µM)	other results
OC1C=Cc2c(cc3ccc4cccc5ccc2c3c45)C1O (racemic) [( ± )B[a]P-7,8-diol, 7,8-dihydroxy-7,8-dihydrobenzo[a]pyrene]	6.8 ± 1.2 µM	45 ± 11 units/min/nmol P450	> 20 µM	–	–	–	–	–	ΔAmax/ Ks (P450 1B1 [1]; P450 1B1, Reverse Type I spectra): 0.0035; ΔAmax (P450 1B1 [1]; P450 1B1, Reverse Type I spectra, ± SE): 0.024 ± 0.002; activation of procarcinogens umu gene expression (P450 1B1 [3]): 2600 ± 110 units/min/nmol P450; activation of procarcinogens umu gene expression (human P450 2A13 [4]): 136 ± 22 units/min/nmol P450
Cc1c2ccccc2c(C)c2c1ccc1ccccc12 [7,12-DMBA, 7,12-dimethylbenz[a]anthracene]	8.8 ± 1.3 µM	<10 units/min/nmol P450	> 20 µM	190 ± 21 units/min/nmol P450	<10 units/min/nmol P450	–	–	–	ΔAmax (P450 1B1 [1]): 0.039 ± 0.002; ΔAmax/ Ks (P450 1B1 [1]): 0.0044
Cc1c2ccccc2c(C)c2c3c(ccc12)C(O)C(O)C=C3 (stereo not drawn) [7,12-DMBA-3,4-diol, 3,4-dihydroxy-3,4-dihydro-7,12-dimethylbenz[a]anthracene]	–	–	–	–	–	2700 ± 110 units/min/nmol P450	55 ± 13 units/min/nmol P450	280 ± 33 units/min/nmol P450	Kd (P450 1B1 [1]; human, pH 7.4): > 20 µM; Kd (P450 2A13; human, pH 7.4): > 20 µM
OC1C=Cc2c(ccc3cc4ccccc4cc23)C1O (stereo not drawn) [B[a]A-trans-3,4-diol, 3,4-dihydroxy-3,4-dihydrobenz[a]anthracene]	–	–	–	–	–	<10 units/min/nmol P450	<10 units/min/nmol P450	<10 units/min/nmol P450	Kd (P450 1B1 [1]; human, pH 7.4): > 20 µM
Cc1cnc2ccc3c(nc(N)n3C)c2n1 [MeIQx, 2-amino-3,8-dimethylimiidazo[4,5-f]quinoxaline]	–	45 ± 15 units/min/nmol P450	–	87 ± 11 units/min/nmol P450	110 ± 15 units/min/nmol P450	–	–	–	–
Cc1c(N)nc(C)c2c1[nH]c1ccccc12 [Trp-P-1, 3-amino-1,4-dimethyl-5H-pyrido[4,3-b]indole]	> 20 µM	61 ± 11 units/min/nmol P450	–	910 ± 90 units/min/nmol P450	40 ± 9 units/min/nmol P450	–	–	–	–
C1=Cc2cccc3cccc1c23 [acenaphthylene]	> 20 µM	–	0.61 ± 0.19 µM	–	–	<10 units/min/nmol P450	<10 units/min/nmol P450	<10 units/min/nmol P450	ΔAmax (P450 2A13): 0.050 ± 0.004; ΔAmax/ Ks (P450 2A13): 0.082; Kd (P450 2A6 [7]): 4.4 ± 0.52 µM; spectral interaction with P450 2A6 (Type I binding spectra) (P450 2A6 [7]): interacted; ΔAmax (P450 2A6 [7]): 0.076 ± 0.52; ΔAmax/ Ks (P450 2A6 [7]): 0.017
c1ccc2c(c1)-c1cccc3cccc-2c13 [fluoranthene]	1.6 ± 0.32 µM	<10 units/min/nmol P450	2.4 ± 1.5 µM	<10 units/min/nmol P450	<10 units/min/nmol P450	–	–	–	ΔAmax (P450 1B1 [1]): 0.066 ± 0.003; ΔAmax/ Ks (P450 1B1 [1]): 0.042; ΔAmax (P450 2A13): 0.044 ± 0.011; ΔAmax/ Ks (P450 2A13): 0.018; Kd (P450 2A6 [7]): > 20 µM
